Test results as given in US12539298B2, “Lobinaline N-oxides as positive allosteric modulators of the dopamine transporter with potential value in the treatment of substance abuse disorders” (University of Kentucky Research Foundation, priority 2019, dated 2026).

How the values were obtained:
[1] = test system: rat striatal synaptosomes; assay: [3H]DA release from rat striatal synaptosomes; assay type: biochemical; conditions: preloaded synaptosomes; 10-500 uM tested; 30 min at 37° C
Experimental: (§2) [3H]DA release from rat striatal synaptosomes: Synaptosomes preloaded with [3H]DA were exposed to lobinaline (10-500 uM), 30 min @ 37° C.). [3H]DA release was calculated by subtraction of activity following drug treatment from activity in the absence of drug.

[2] = biological target: T1, alpha4/beta2 nicAChR (Rattus norvegicus, UniProt P09483+P12390); assay: displacement of beta2-selective radioligand [3H]cytisine; assay type: binding
T1 construct: from tissue
T1 sequence (P09483 31-630): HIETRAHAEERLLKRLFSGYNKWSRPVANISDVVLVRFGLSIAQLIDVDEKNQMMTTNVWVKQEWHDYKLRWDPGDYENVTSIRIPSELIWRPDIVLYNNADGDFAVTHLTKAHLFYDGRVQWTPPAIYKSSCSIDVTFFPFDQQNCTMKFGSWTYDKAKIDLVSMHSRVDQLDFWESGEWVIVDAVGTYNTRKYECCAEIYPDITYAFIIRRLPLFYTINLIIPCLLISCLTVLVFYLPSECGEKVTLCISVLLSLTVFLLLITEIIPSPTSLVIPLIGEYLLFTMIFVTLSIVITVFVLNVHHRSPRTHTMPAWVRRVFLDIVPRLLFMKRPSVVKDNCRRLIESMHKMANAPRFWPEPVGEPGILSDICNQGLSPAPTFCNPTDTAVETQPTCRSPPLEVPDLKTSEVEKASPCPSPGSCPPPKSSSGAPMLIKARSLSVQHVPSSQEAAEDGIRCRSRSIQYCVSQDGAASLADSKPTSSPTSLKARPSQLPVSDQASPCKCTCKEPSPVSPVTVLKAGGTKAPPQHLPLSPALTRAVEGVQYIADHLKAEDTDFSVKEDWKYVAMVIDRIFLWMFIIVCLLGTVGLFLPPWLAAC
T1 sequence (P12390 25-500): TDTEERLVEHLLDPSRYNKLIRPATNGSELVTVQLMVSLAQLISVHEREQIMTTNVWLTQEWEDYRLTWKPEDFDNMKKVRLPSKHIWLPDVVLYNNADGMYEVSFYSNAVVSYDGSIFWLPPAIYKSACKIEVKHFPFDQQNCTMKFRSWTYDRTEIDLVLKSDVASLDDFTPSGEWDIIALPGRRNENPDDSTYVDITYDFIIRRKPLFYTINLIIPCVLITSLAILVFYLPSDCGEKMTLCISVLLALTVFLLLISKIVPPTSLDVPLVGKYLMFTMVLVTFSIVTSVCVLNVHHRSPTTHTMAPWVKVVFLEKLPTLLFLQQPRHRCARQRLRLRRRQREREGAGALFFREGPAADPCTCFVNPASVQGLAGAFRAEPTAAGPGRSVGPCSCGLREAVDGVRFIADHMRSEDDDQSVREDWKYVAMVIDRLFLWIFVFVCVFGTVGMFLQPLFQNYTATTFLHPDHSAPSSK

[3] = biological target: nicAChRs; assay: displacement of [3H]epibatidine from rat brain homogenates; assay type: binding
[4] = biological target: T2, DAT (Rattus norvegicus, UniProt P23977); assay: DA clearance in striatum of anesthetized rats by in vivo electrochemistry (high-speed chronoamperometry), Example 8; parameters: DA clearance in striatum and nucleus accumbens of urethane-anesthetized SD rats; from tissue; host or cells: striatum / nucleus accumbens of living anesthetized SD rats; species or system SD rats
T2 sequence (P23977 whole entry): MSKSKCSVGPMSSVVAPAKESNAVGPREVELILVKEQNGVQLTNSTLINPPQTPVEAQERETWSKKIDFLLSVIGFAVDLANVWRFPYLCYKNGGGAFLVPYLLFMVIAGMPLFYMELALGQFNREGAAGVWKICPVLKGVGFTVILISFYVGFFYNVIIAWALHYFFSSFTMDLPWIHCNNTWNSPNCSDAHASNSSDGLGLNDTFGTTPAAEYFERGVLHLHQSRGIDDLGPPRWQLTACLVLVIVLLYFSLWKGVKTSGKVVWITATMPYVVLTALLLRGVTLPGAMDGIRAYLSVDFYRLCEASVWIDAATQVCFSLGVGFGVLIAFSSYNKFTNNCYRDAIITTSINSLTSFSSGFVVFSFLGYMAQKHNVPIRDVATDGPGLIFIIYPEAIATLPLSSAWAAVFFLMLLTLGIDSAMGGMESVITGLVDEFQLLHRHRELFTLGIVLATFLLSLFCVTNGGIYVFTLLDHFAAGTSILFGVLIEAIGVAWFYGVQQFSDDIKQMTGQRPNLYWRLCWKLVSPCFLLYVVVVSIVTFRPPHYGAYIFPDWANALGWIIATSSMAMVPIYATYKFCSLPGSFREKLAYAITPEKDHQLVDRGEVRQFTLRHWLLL
Experimental: DA clearance in striatum and nucleus accumbens of urethane-anesthetized SD rats was monitored by in vivo electrochemistry using high-speed chrono-amperometry [see 36]. After obtaining reproducible signals for locally applied DA, vehicle or drug was applied slowly over 10-30 sec, then 30-60 sec later the next application of DA was made, with subsequent DA applications at 5-minute intervals for 25-30 min. The DA kinetic data from each animal was analyzed using FAST software (Quanteon). […] These effects were no longer seen 3-5 minutes after lobinaline ejection. They are consistent with simple competitive inhibition of the DAT by lobinaline. […] However, the lobinaline N-oxides produce different effects. Representative data from lobinaline N-oxide, at the same concentration used for lobinaline (1 mM in 250 nl medium) are shown in FIG. 6. […] This is entirely consistent with effects on synaptosomal [3H]DA uptake in vitro above, and probably represents competitive inhibition. However, after exposure to the N-oxide there is a significant and prolonged (c20 min) increase in the first order rate of decay of the DA peak. […] This increase in rate constant induced by the N-oxide varied from 20× to 2× at increasing depths in the DV gradient.
The uptake rate of locally applied DA (˜100 nl; 200 μM) was measured before and 1 minute after local application of lobinaline (˜250 nl; 1 mM), 403 (˜300 nl; 250 μM) or 419 (˜300 nl; 250 μM) (FIGS. 7, 8, and 9).

[5] = test system: nicAChRs; assay: [3H]DA release from superfused rat striatal slices; assay type: cell-based; conditions: 100 uM superfused before nicotine
Experimental: Effects of lobinaline and nicotine on [3H]DA release from superfused rat striatal slices (ref 5): rat brain striatal slices were incubated with [3H]DA for 30 min at […] before transfer to superfusion chambers. […] To evaluate the role of nicAChRs, striatal slices preloaded with [3H]-DA were pretreated with the nicAChR antagonist mecamylamine (10 μM) prior to superfusion of lobinaline (100 μM). […] With the data above from SHSY5Y cells, this supports a partial agonist action of lobinaline at nicAChRs. The N-oxides have not yet been tested in this system. Lobinaline has weak agonist effects on nicAChRs, but also has as yet unquantified antagonist effects (i.e. it acts as a partial agonist at nicAChRs).

[6] = biological target: T3, alpha7-nicAChR (Rattus norvegicus, UniProt Q05941); assay: displacement of [3H]-methyllycaconitine; assay type: binding; conditions: alpha7-nicAChR selective radioligand
T3 construct: from tissue
T3 sequence (Q05941 23-502): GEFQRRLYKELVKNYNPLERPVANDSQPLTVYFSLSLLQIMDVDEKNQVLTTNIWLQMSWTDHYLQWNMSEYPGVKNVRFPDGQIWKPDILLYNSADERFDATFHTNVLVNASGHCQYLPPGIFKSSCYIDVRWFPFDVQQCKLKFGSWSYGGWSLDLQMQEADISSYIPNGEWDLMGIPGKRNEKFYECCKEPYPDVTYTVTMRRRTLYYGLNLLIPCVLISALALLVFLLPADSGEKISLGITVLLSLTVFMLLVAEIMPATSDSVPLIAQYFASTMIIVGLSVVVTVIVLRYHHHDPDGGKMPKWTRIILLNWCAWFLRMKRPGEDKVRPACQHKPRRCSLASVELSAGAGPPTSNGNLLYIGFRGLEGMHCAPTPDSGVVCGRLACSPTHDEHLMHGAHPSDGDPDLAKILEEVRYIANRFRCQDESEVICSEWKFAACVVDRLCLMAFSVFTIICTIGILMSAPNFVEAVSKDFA

[7] = octanol/water partition (K octanol/water); assay type: physicochemical
Source text: (§1) Lobinaline and the “mono”-N-oxide were separated from plant and culture material by acid/base extraction, but the bi-N-oxide was derived from lobinaline using 3-chloroperbenzoic acid. All these compounds were separated by column chromatography with identity and purity confirmed by LC/MS.

[8] = biological target: T2, DAT; assay: [3H]DA uptake into rat striatal synaptosomes; assay type: biochemical; parameters: from tissue; host or cells: rat striatum (synaptosomes; homogenate); conditions: compound added 15 min before [3H]DA, 30 min at 37° C, read-out: IC50, inhibition of [3H]-DA uptake
Experimental: Lobinaline or the N-oxides were added 15 min before addition of [3H]DA. Synaptosomal uptake of [3H]DA was measured after 30 min incubation at 37° C.

[9] = biological target: T2, DAT; assay: dopamine uptake in striatum of isoflurane-anesthetized rats by in vivo electrochemistry, Examples 19-20; parameters: DA clearance in striatum and nucleus accumbens of urethane-anesthetized SD rats; from tissue; host or cells: striatum / nucleus accumbens of living anesthetized SD rats; species or system SD rats
Experimental: After obtaining reproducible signals for locally applied DA (50-75 nl, 200 μM) to produce a control DA peak height below 1 uM, vehicle or drug was locally applied slowly over 10-30 sec (˜500 nl 250 μM), then 60 sec later the next application of DA was performed, with subsequent DA applications at 5-min intervals for 25 min. […] The DA kinetic data from each animal were analyzed using FAST software (Quanteon, LLC, Nicholasville KY USA). […] These parameters were compared between pre- and post-drug application by one-way ANOVA with Tukey's post hoc analysis, with significance assigned at p<0.05.

[10] = aqueous solubility; assay type: physicochemical
Source text: Lobinaline (FIG. 1), was isolated from plant material and identified as the first-known binitrogenous plant alkaloid more than 80 years ago [27]. The applicants began to test its pharmacological activity after identifying Lobelia cardinalis as a novel source of nicAChR activity by high throughput screening in 2005 [26]. This plant species has no history of abuse, or traditional medicinal use of relevance to SUDs. […] These actions support lobinaline as a lead compound for the treatment of SUDs, particularly alcohol and nicotine use disorders. […] Lobinaline also appears to have appropriate pharmacokinetics and low toxicity. […] Conversely, this makes it a good test of the ability of target-directed evolution to generate novel inhibitors of the DAT in mutant plant cells.
as §1

[11] = Drinking in the dark model of binge drinking; assay type: in vivo, C57Bl/6J mice; conditions: 25 mg/Kg SC
Experimental: “Drinking in the dark” is a model for binge drinking in which C57Bl/6J mice are given limited access to alcohol during their dark cycle. With repeated daily access, mice will voluntarily drink to blood alcohol levels above 150 mg/dl. Lobeline reduces alcohol consumption in this model and it has predictive validity in that both naltrexone and acamprosate are active.
Methods: 8 male and 8 female mice were used for each of these studies and scoring was by an observer blind to treatment. Statistical analysis was by ANOVA followed by Bonnferoni posthoc with significance at p<0.05.

[12] = biological target: T2, DAT; assay: [3H]GBR 12935 binding to rat striatal homogenate; parameters: from tissue; host or cells: rat striatum (synaptosomes; homogenate)
Experimental: as §2

In the case of `CN1CCCC2C(c3ccccc3)C(C3=NCCCC3)C(c3ccccc3)CC21` (stereo not drawn) [lobinaline], the “concentration causing significant release of [3H]DA” value [1] is reported as 500 µM, the Ki [2] is reported as 1.1 µM and the Ki [3] is reported as 16 µM. For the same compound, the “character of [3H]epibatidine displacement” value [3] was “monophasically displaced”, the “effect on DA clearance rate” value ([4]; 1-minute post-application) was “significantly decreased” and the “effect on DA peak” value ([4]; local application 1 mM, 250 nl) was “non-significantly decreased”. For the same compound, the “time after ejection at which effects are no longer seen / DA clearance returns to normal” value ([4]; local ejection in striatum) was 3 to 5 min, the “reduction in DA clearance” value ([4]; striatum, 1 minute after local application (lobinaline ~250 nl 1 mM; 403, 419 ~300 nl 250 μM), FIGS. 7-9) was 50% and the “fractional [3H]DA release induced by 10 uM nicotine after test substance” value [5] was “completely prevented”. The Ki [6] was 15 µM, the “K octanol/water (Ko/w)” value [7] was 4.8 and the IC50 [8] was 0.359 µM. The “release of endogenous DA” value ([9]; any brain region, n=8-36) was “Neither lobinaline nor its N-oxides ever caused release of endogenous DA”, the “effect on DA clearance parameters” value ([9]; relative to % control) was “small, but significant, reduction in all DA clearance parameters” and the “effect on amplitude of the DA signal” value ([9]; single local application ~500 nl 250 μM, striatum, FIGS. 10, 11) was “transient, a non-significant decrease in amplitude”. For the same compound, the aqueous solubility [10] was “very low aqueous solubility”, the “food or water intake” value [11] was “no reduction in food or water intake” and the overt toxicity [11] was “neither compound produced overt toxicity”. The “inhibition of alcohol consumption” value ([11]; males and females) was about 40%, the “extent of displacement of [3H]GBR 12935” value [12] was “completely displaced” and the Ki ([12]; read-out: Ki, displacement of [3H]GBR 12935) was 2.54 µM.
